Measurements: PubChem BioAssay (NCI)
Values joined by “and” are separate entries in the source; they are usually repeats but may differ in a detail not shown here. Identical values can stand only once.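 Grown in 96-well plates, cells were treated for 48 hours with each compound at five concentrations. Insufficient inhibition: endpoint recorded as highest concentration tested. GI50 is the concentration that inhibits growth by half. At the TGI there is no net growth.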

What was measured:
Test in all cases: NCI tumour cell line growth inhibition, 48 h
COLO 205 colon = test system: COLO 205 colon
HCT-116 colon = test system: HCT-116 colon
MALME-3M melanoma = test system: MALME-3M melanoma
NCI-H226 lung = test system: NCI-H226 lung
OVCAR-4 ovarian = test system: OVCAR-4 ovarian
SF-268 CNS = test system: SF-268 CNS
SF-539 CNS = test system: SF-539 CNS
SK-OV-3 ovarian = test system: SK-OV-3 ovarian
BT-549 breast = test system: BT-549 breast
UACC-257 melanoma = test system: UACC-257 melanoma

c1ccc(CSC(SCc2ccccc2)c2cccc3ccccc23)cc1
TGI (COLO 205 colon): > 10 µM
TGI (HCT-116 colon): > 10 µM
TGI (MALME-3M melanoma): > 10 µM
TGI (NCI-H226 lung): > 10 µM
TGI (OVCAR-4 ovarian): > 10 µM
TGI (SF-268 CNS): > 10 µM
TGI (SF-539 CNS): > 10 µM
TGI (SK-OV-3 ovarian): > 10 µM

c1ccc(/C(=N\Nc2nc3ccccc3[nH]2)c2ccccn2)cc1
TGI (BT-549 breast): 14.5 µM
TGI (COLO 205 colon): 3.31 µM
TGI (HCT-116 colon): 4.52 µM
TGI (MALME-3M melanoma): 8.31 µM
TGI (NCI-H226 lung): 2.09 µM
TGI (OVCAR-4 ovarian): 4.99 µM
TGI (SF-268 CNS): > 45.9 µM
TGI (SF-539 CNS): 1.64 µM
TGI (SK-OV-3 ovarian): 2.02 µM
TGI (UACC-257 melanoma): 4.63 µM

N#CC1(CCCI)CCCC1
TGI (COLO 205 colon): > 100 µM
TGI (HCT-116 colon): > 100 µM
TGI (MALME-3M melanoma): 80.6 µM
TGI (SF-268 CNS): 41.3 µM
TGI (SF-539 CNS): 45.1 µM
TGI (SK-OV-3 ovarian): > 100 µM
TGI (UACC-257 melanoma): > 100 µM

O=C(O)c1cc2ccccc2c(N=Nc2ccc(S(=O)(=O)Nc3ccccn3)cc2)c1O
TGI (BT-549 breast): > 100 µM
TGI (COLO 205 colon): > 100 µM
TGI (HCT-116 colon): > 100 µM
TGI (MALME-3M melanoma): > 100 µM
TGI (NCI-H226 lung): > 100 µM
TGI (OVCAR-4 ovarian): > 100 µM
TGI (SF-268 CNS): > 100 µM
TGI (SF-539 CNS): > 100 µM
TGI (SK-OV-3 ovarian): > 100 µM
TGI (UACC-257 melanoma): > 100 µM

Cc1[nH]c(C(=O)Nc2ccc(C(=O)NCCN)cc2OC(C)C)c(Cl)c1Cl
GI50 (BT-549 breast): 10.6 µM
TGI (BT-549 breast): 33 µM
GI50 (MALME-3M melanoma): 1.46 µM
TGI (MALME-3M melanoma): 3.19 µM
GI50 (SF-539 CNS): 1.68 µM
TGI (SF-539 CNS): 3.14 µM

Cc1csc2nc(-c3cccc([N+](=O)[O-])c3)c(/C=N/N=C(N)N)n12
TGI (BT-549 breast): 2.49 µM
TGI (COLO 205 colon): 3 µM
TGI (HCT-116 colon): 3.3 µM
TGI (OVCAR-4 ovarian): 3.19 µM
TGI (SF-268 CNS): 3.29 µM
TGI (SF-539 CNS): 4.71 µM
TGI (SK-OV-3 ovarian): 3.33 µM
TGI (UACC-257 melanoma): 3.22 µM

O=C1Nc2cccc(Cl)c2/C1=C\c1cccnc1
TGI (BT-549 breast): 24.4 µM
TGI (COLO 205 colon): 15.9 µM
TGI (HCT-116 colon): 11.3 µM
TGI (MALME-3M melanoma): 24 µM
TGI (OVCAR-4 ovarian): 31.7 µM
TGI (SF-268 CNS): 25.6 µM
TGI (SF-539 CNS): 39.7 µM
TGI (SK-OV-3 ovarian): 15.3 µM
TGI (UACC-257 melanoma): 16.8 µM

C[n+]1c2ccccc2c(N=[N+]=[N-])c2ccccc21
TGI (BT-549 breast): > 10 µM
TGI (COLO 205 colon): > 10 µM
TGI (HCT-116 colon): > 10 µM
TGI (MALME-3M melanoma): > 10 µM
TGI (NCI-H226 lung): > 10 µM
TGI (OVCAR-4 ovarian): > 10 µM
TGI (SF-268 CNS): > 10 µM
TGI (SF-539 CNS): > 10 µM
TGI (SK-OV-3 ovarian): > 10 µM
TGI (UACC-257 melanoma): > 10 µM

CCCCCCCCCCCCc1ccc(S(=O)(=O)O)cc1.[Cu+2]
TGI (COLO 205 colon): > 100 µM
TGI (HCT-116 colon): > 100 µM
TGI (MALME-3M melanoma): > 100 µM
TGI (OVCAR-4 ovarian): > 100 µM
TGI (SF-268 CNS): > 100 µM
TGI (SF-539 CNS): > 100 µM
TGI (SK-OV-3 ovarian): 22.8 µM
TGI (UACC-257 melanoma): > 100 µM

CC[C@@]1(O)CC(OC2CC(N3CCOCC3)C(O)C(C)O2)c2c(O)c3c(c(O)c2[C@H]1O)C(=O)c1cccc(O)c1C3=O (stereo partly specified)
TGI (BT-549 breast): 0.349 µM
GI50 (COLO 205 colon): 0.0433 µM
TGI (COLO 205 colon): 0.897 µM and 2.14 µM
GI50 (HCT-116 colon): 0.0149 µM
TGI (HCT-116 colon): 4.27 µM and 3.5 µM
GI50 (MALME-3M melanoma): 0.034 µM
TGI (MALME-3M melanoma): 0.258 µM and 0.339 µM
GI50 (NCI-H226 lung): 0.0184 µM
TGI (NCI-H226 lung): 0.597 µM and 0.102 µM
GI50 (OVCAR-4 ovarian): 0.199 µM
TGI (OVCAR-4 ovarian): 1.55 µM and 2.88 µM
GI50 (SF-268 CNS): 0.091 µM
TGI (SF-268 CNS): 3.27 µM and 2.1 µM
GI50 (SF-539 CNS): 0.0233 µM
TGI (SF-539 CNS): 1.07 µM and 0.71 µM
GI50 (SK-OV-3 ovarian): 0.0963 µM
TGI (SK-OV-3 ovarian): 1.07 µM and 1.67 µM
GI50 (UACC-257 melanoma): 0.108 µM
TGI (UACC-257 melanoma): 1.34 µM and 0.69 µM

O=C(CSCC(=O)N/N=C\c1ccc(F)cc1F)N/N=C\c1ccc(F)cc1F
TGI (COLO 205 colon): > 100 µM
TGI (HCT-116 colon): > 100 µM
TGI (MALME-3M melanoma): > 100 µM
TGI (NCI-H226 lung): > 100 µM
TGI (OVCAR-4 ovarian): > 100 µM
TGI (SF-268 CNS): > 100 µM
TGI (SF-539 CNS): > 100 µM
TGI (SK-OV-3 ovarian): > 100 µM
TGI (UACC-257 melanoma): > 100 µM

C[C@]12CC[C@H]3[C@@H](CC=C4C[C@@H](O)CC[C@@]43C)[C@@H]1C/C(=C\c1ccncc1)[C@@H]2O
TGI (BT-549 breast): 19.9 µM
TGI (COLO 205 colon): 24.9 µM
TGI (HCT-116 colon): 51.4 µM
TGI (MALME-3M melanoma): 62.1 µM
TGI (NCI-H226 lung): 57.2 µM
TGI (OVCAR-4 ovarian): 39.5 µM
TGI (SF-268 CNS): 54.4 µM
TGI (SF-539 CNS): 45.9 µM
TGI (SK-OV-3 ovarian): 79.6 µM
TGI (UACC-257 melanoma): 40.4 µM

N#Cc1c(-c2ccc([N+](=O)[O-])cc2)c2c([nH]c1=O)-c1ccccc1CCC2
TGI (BT-549 breast): 85.9 µM
TGI (COLO 205 colon): > 100 µM
TGI (HCT-116 colon): > 100 µM
TGI (MALME-3M melanoma): > 100 µM
TGI (NCI-H226 lung): 96.2 µM
TGI (OVCAR-4 ovarian): > 100 µM
TGI (SF-268 CNS): > 100 µM
TGI (SF-539 CNS): > 100 µM
TGI (SK-OV-3 ovarian): > 100 µM
TGI (UACC-257 melanoma): > 100 µM

CC(C)CCN(CCC(C)C)CC(=O)Nc1ccc(S(=O)(=O)c2ccc(NC(=O)CN(CCC(C)C)CCC(C)C)cc2)cc1
GI50 (BT-549 breast): 1.16 µM
TGI (BT-549 breast): 3.36 µM
GI50 (MALME-3M melanoma): 1.57 µM
TGI (MALME-3M melanoma): 3.51 µM
GI50 (NCI-H226 lung): 2.91 µM
TGI (NCI-H226 lung): 11.5 µM
GI50 (OVCAR-4 ovarian): 2.56 µM
TGI (OVCAR-4 ovarian): 12.7 µM
GI50 (SF-268 CNS): 1.51 µM
TGI (SF-268 CNS): 4.68 µM
GI50 (SF-539 CNS): 1.57 µM
TGI (SF-539 CNS): 3.07 µM
GI50 (SK-OV-3 ovarian): 28 µM
TGI (SK-OV-3 ovarian): 88 µM
GI50 (UACC-257 melanoma): 3.01 µM
TGI (UACC-257 melanoma): 13.6 µM

O=C1OC(c2ccc(O)cc2)(c2ccc(O)cc2)c2ccc(Cl)c3cccc1c23 (tested in a mixture with another compound)
TGI (BT-549 breast): 31.7 µM
TGI (COLO 205 colon): 9.06 µM
TGI (HCT-116 colon): 18.9 µM
TGI (MALME-3M melanoma): 29.1 µM
TGI (NCI-H226 lung): 34 µM
TGI (OVCAR-4 ovarian): 0.325 µM
TGI (SF-268 CNS): 52.8 µM
TGI (SF-539 CNS): 20.8 µM
TGI (SK-OV-3 ovarian): > 75 µM
TGI (UACC-257 melanoma): 70.1 µM

COc1ccccc1C#C/C=C\C#Cc1ccccc1C#N
TGI (COLO 205 colon): 37.1 µM
TGI (HCT-116 colon): 27.7 µM
TGI (MALME-3M melanoma): 47.7 µM
TGI (OVCAR-4 ovarian): > 100 µM
TGI (SF-268 CNS): > 100 µM
TGI (SF-539 CNS): 82.7 µM
TGI (SK-OV-3 ovarian): > 100 µM
TGI (UACC-257 melanoma): 94.6 µM

C[N+]1(C(CO)Cc2c[nH]c3ccccc23)Cc2ccccc2C1 (stereo unspecified)
TGI (BT-549 breast): > 100 µM
TGI (COLO 205 colon): > 100 µM
TGI (HCT-116 colon): > 100 µM
TGI (MALME-3M melanoma): 81 µM
TGI (NCI-H226 lung): > 100 µM
TGI (OVCAR-4 ovarian): > 100 µM
TGI (SF-268 CNS): > 100 µM
TGI (SK-OV-3 ovarian): > 100 µM
TGI (UACC-257 melanoma): > 100 µM

Cc1ncc(C(=O)Nc2ccc(CN3CCN(C)CC3)c(C(F)(F)F)c2)cc1C#Cc1cnc(N)c2ccc(C#N)cc12
GI50 (BT-549 breast): 0.631 µM
TGI (BT-549 breast): > 100 µM
GI50 (COLO 205 colon): 0.0146 µM
TGI (COLO 205 colon): > 100 µM
GI50 (NCI-H226 lung): 0.0345 µM
TGI (NCI-H226 lung): 0.593 µM
GI50 (SF-268 CNS): 0.0399 µM
TGI (SF-268 CNS): > 100 µM
GI50 (SF-539 CNS): 0.0796 µM
TGI (SF-539 CNS): 1.45 µM
GI50 (SK-OV-3 ovarian): 0.02 µM
TGI (SK-OV-3 ovarian): > 100 µM
GI50 (UACC-257 melanoma): 0.0538 µM
TGI (UACC-257 melanoma): 1.61 µM
